Experimental data as given in ChEMBL document CHEMBL1147224, “Resveratrol and two monomethylated stilbenes from Israeli Rumex bucephalophorus and their antioxidant potential” (J Nat Prod, 2003).

Experiment: ABTS radical scavenging activity assessed as trolox equivalent antioxidant capacity after 10 mins; call rule not given here
Type: physicochemical
With `COc1ccc(/C=C/c2cc(O)cc(O)c2)cc1` [RESVERATROL 4'-METHYL ETHER] the Activity was “Active”. With `COc1cc(O)cc(/C=C/c2ccc(O)cc2)c1` the Activity was “Active”. For `Oc1ccc(/C=C/c2cc(O)cc(O)c2)cc1` [RESVERATROL], the Activity was 2.74.
